Results reported in patent US8580809B2, “Filamin A-binding anti-inflammatory analgesic” (Pain Therapeutics, Inc., priority 2009, dated 2013).

Biological target: T1, mu opiate receptor (MOR) (Rattus norvegicus, UniProt P33535)
T1 construct: from tissue; host or cells: rat striatal membrane preparation
Assay: MOR agonist activity using [35S]GTPγS binding assay in striatal membranes
Type: biochemical
Conditions: for MOR agonist activity, [35S]GTPγS binding to Gαo, FLNA-binding compound as agonist 0.1 μM: 0.1 μM compound; for MOR agonist activity, [35S]GTPγS binding to Gαo, FLNA-binding compound as agonist 0.1 μM / MOR agonist activity, [35S]GTPγS binding to Gαo, FLNA-binding compound as agonist 1 μM: striatal membranes; for MOR agonist activity, [35S]GTPγS binding to Gαo, 1 μM + BFNA: 1 μM compound + 1 μM β-funaltrexamine; for MOR agonist activity, [35S]GTPγS binding to Gαo, FLNA-binding compound as agonist 1 μM: 1 μM compound
Procedure: To assess the mu opiate receptor (MOR) agonist activity of positive compounds from the FLNA screening, compounds were tested in a [^35S]GTPγS binding assay using striatal membranes.
Striatal tissue was homogenized in 10 volumes of ice cold 25 mM HEPES buffer, pH 7.4, which contained 1 mM EGTA, 100 mM sucrose, 50 μg/ml leupeptin, 0.04 mM PMSF, 2 μg/ml soybean trypsin inhibitor and 0.2% 2-mercaptoethanol. The homogenates were centrifuged at 800×g for 5 minutes and the supernatants were centrifuged at 49,000×g for 20 minutes.
The resultant striatal membrane preparation (200 μg) was admixed and maintained (incubated) at 30° C. for 5 minutes in reaction buffer as above that additionally contained 1 mM MgCl2 and 0.5 nM [^35S]GTPγS (0.1 μCi/assay, PerkinElmer Life and Analytical Sciences) in a total volume of 250 μl and continued for 5 minutes in the absence or presence of 0.1-10 μM of an assayed compound of interest. The reaction was terminated by dilution with 750 μl of ice-cold reaction buffer that contained 20 mM MgCl2 and 1 mM EGTA and immediate centrifugation at 16,000×g for 5 minutes.
The resulting pellet was solubilized by sonicating for 10 seconds in 0.5 ml of immunoprecipitation buffer containing 0.5% digitonin, 0.2% sodium cholate and 0.5% NP-40. Normal rabbit serum (1 μl) was added to 1 ml of lysate and incubated at 25° C. for 30 minutes. Nonspecific immune complexes were removed by incubation with 25 μl of protein A/G-conjugated agarose beads at 25° C. for 30 minutes followed by centrifugation at 5,000×g at 4° C. for 5 minutes. The supernatant was divided and separately incubated at 25° C. for 30 minutes with antibodies raised against Gαo proteins (1:1,000 dilutions).
The immunocomplexes so formed were collected by incubation at 25° C. for 30 minutes with 40 μl of agarose-conjugated protein A/G beads and centrifugation at 5,000×g at 4° C. for 5 minutes. The pellet was washed and suspended in buffer containing 50 mM Tris-HCl, pH 8.0, and 1% NP-40. The radioactivity in the suspension was determined by liquid scintillation spectrometry. […] DAMGO (H-Tyr-D-Ala-Gly-N-MePhe-Gly-OH; 1 or 10 μM) was used as a positive control.

T1 sequence (P33535 whole entry): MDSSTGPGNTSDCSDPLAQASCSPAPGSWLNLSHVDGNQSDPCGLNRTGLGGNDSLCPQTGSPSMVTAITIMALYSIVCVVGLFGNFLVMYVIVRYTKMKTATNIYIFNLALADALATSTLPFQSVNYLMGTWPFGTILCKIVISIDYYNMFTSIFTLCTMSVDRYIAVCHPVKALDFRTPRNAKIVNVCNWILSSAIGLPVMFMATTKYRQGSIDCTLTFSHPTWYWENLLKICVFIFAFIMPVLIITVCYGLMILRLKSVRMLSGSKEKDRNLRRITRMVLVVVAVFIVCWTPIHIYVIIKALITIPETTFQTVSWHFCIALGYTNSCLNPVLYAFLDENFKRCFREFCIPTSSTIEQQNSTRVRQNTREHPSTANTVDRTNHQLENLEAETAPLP

| SMILES | MOR agonist activity, [35S]GTPγS binding to Gαo, FLNA-binding compound as agonist 0.1 μM [%] | MOR agonist activity, [35S]GTPγS binding to Gαo, 1 μM + BFNA [%] | MOR agonist activity, [35S]GTPγS binding to Gαo, FLNA-binding compound as agonist 1 μM [%] |
| --- | --- | --- | --- |
| COc1ccc(S(=O)(=O)N2CCC3(CC2)OCCN3S(=O)(=O)c2ccc(OC)c(OC)c2)cc1OC [Compound C0049] | 106.6 | 81.0 | 210.0 |
| O=S(=O)(c1ccc(Br)cc1C(F)(F)F)N1CCC2(CC1)OCCN2S(=O)(=O)c1ccc(Br)cc1C(F)(F)F [Compound C0068] | 107.2 | 165.9 | 263.1 |
| Cc1ccc(S(=O)(=O)N2CCC3(CC2)OCCN3S(=O)(=O)c2ccc(C)cc2)cc1 [Compound C0001] | 129.3 | 33.9 | 184.3 |
| COc1ccc(S(=O)(=O)N2CCC3(OCCN3S(=O)(=O)c3ccc(OC)cc3)C3CCCCC32)cc1 (stereo not drawn) [Compound C0144M] | 186.3 | 125.9 | 295.9 |
| CC(=O)c1ccc(S(=O)(=O)N2CCC3(CC2)NC(=O)CN3Cc2ccccc2)cc1 [Compound C0085M] | 211.6 | 43.7 | 246.2 |
| O=S(=O)(c1cccc2cccnc12)N1CCC2(CC1)OCCN2S(=O)(=O)c1cccc2cccnc12 [Compound C0143M] | 81.0 | 86.5 | 193.3 |
| N#Cc1ccc(S(=O)(=O)N2CCC3(CC2)OCCN3S(=O)(=O)c2ccc(C#N)cc2)cc1 [Compound C0008] | 71.2 | 2.8 | 201.6 |
| O=S(=O)(c1cccc(OC(F)(F)F)c1)N1CCC2(CC1)OCCN2S(=O)(=O)c1cccc(OC(F)(F)F)c1 [Compound C0005] | 180.4 | 166.4 | 227.2 |
| O=S(=O)(c1ccc(Br)cc1Br)N1CCC2(CC1)OCCN2S(=O)(=O)c1ccc(Br)cc1Br [Compound C0070] | 165.6 | 114.2 | 210.8 |
| O=S(=O)(c1ccc(F)c(F)c1)N1CCC2(CC1)OCCN2S(=O)(=O)c1ccc(F)c(F)c1 [Compound C0072] | 172.7 | 67.1 | 259.1 |
| O=S(=O)(c1ccc(F)cc1)N1CCC2(CC1)OCCN2S(=O)(=O)c1ccc(F)cc1 [Compound C0029] | 175.4 | 16.6 | 308.8 |
| NS(=O)(=O)c1ccc(S(=O)(=O)N2CCC3(CC2)OCCN3S(=O)(=O)c2ccc(S(N)(=O)=O)cc2)cc1 [Compound C0034] | 103.6 | 80.1 | 167.9 |
| CC(O)c1ccc(S(=O)(=O)N2CCC3(CC2)OCCN3S(=O)(=O)c2ccc(C(C)O)cc2)cc1 (stereo not drawn) [Compound C0051] | 94.4 | 55.9 | 170.4 |
| O=S(=O)(c1ccccc1)N1CCC2(CC1)OCCN2S(=O)(=O)c1ccccc1 [Compound C0016] | 172.7 | 96.7 | 230.5 |
| O=S(=O)(c1cccs1)N1CCC2(CC1)OCCN2S(=O)(=O)c1cccs1 [Compound C0141M] | 161.5 | 47.9 | 213.9 |
| Cc1ccccc1S(=O)(=O)N1CCC2(CC1)OCCN2S(=O)(=O)c1ccccc1C [Compound C0015] | 138.7 | 126.8 | 204.7 |
| O=C(OCc1ccccc1)c1ccc(S(=O)(=O)N2CCC3(CC2)OCCN3S(=O)(=O)c2ccc(C(=O)OCc3ccccc3)cc2)cc1 [Compound C0042] | 167.1 | 110.6 | 260.9 |
| O=S(=O)(c1ccc(C(F)(F)F)cc1)N1CCC2(CC1)OCCN2S(=O)(=O)c1ccc(C(F)(F)F)cc1 [Compound C0012] | 96.8 | 184.4 | 224.8 |
| CNc1ccc(S(=O)(=O)N2CCC3(CC2)OCCN3S(=O)(=O)c2ccc(NC)cc2)cc1 [Compound C0024] | 178.4 | 59.3 | 229.6 |
| COc1ccc(C(=O)N2CCC3(CC2)OCCN3S(=O)(=O)c2ccc(OC)cc2)cc1 [Compound C0018] | 195.5 | 106.5 | 247.7 |
| COc1ccc(C(=O)N2CCOC23CCN(S(=O)(=O)c2ccc(OC)cc2)CC3)cc1 [Compound C0019] | 104.4 | 52.8 | 176.6 |
| O=C(c1ccc([N+](=O)[O-])cc1)N1CCC2(CC1)OCCN2C(=O)c1ccc([N+](=O)[O-])cc1 [Compound C0032] | 145.4 | 80.9 | 202.0 |
| O=S(=O)(c1ccc(OC(F)(F)F)cc1)N1CCC2(CC1)OCCN2S(=O)(=O)c1ccc(OC(F)(F)F)cc1 [Compound C0006] | 121.5 | 4.6 | 204.0 |
| CC(C)c1ccc(S(=O)(=O)N2CCC3(CC2)OCCN3S(=O)(=O)c2ccc(C(C)C)cc2)cc1 [Compound C0007] | 79.1 | 10.9 | 195.0 |
